This note sets out measurements from paper PMC5663395, “Chemical Validation of Methionyl-tRNA Synthetase as a Druggable Target in Leishmania donovani” (ACS Infectious Diseases, 2017).

pIC50: −log10 of the molar value. Where two headings read alike, the source gives them in different places.

Data set [1] relates to mitochondrial protein synthesis in H9C2 cells. In words: Mitochondrial protein synthesis assay (COX-1/SDH-A In-Cell ELISA). To be noted: COX-1/SDH-A ratio, average of three experiments. The data set is classed as cell-based.
Data set [2] can be described thus: LogD measurement (Sirius T3, potentiometric). The class given is physicochemical. To be noted: octanol/water. Here is the method: calculated, both in terms of pEC50 values. MIC (minimum inhibitory concentration) values are defined as the lowest concentration tested at which maximal inhibition is reached.
THP-1 cells were differentiated in 96-well plates with PMA as described above. Following differentiation the cells were treated for 30 min with dose-response curves of test compounds in presence of 100 nM LysoTracker Red DND-99 (Thermo Fisher) and 5 µg/ml Hoechst 33342. Next cells were washed 3 times with Hanks Buffered Saline Solution (Gibco) and imaged on a Perkin Elmer Operetta system. An image analysis algorithm to measure mean Lysotracker Red DND-99 intensity per cell was developed in Columbus. […]
To measure the pKa of DDD806905, a fast UV-metric method was performed using a Sirius T3 instrument (Sirius Analytical, U.K.). The calculation of the pKa was determined using the Sirius T3 refine software (Sirius Analytical, U.K.). In brief, the UV-metric pKa method is based on measuring pH during an acid-base titration and monitoring UV absorbance shift. […] The appearance of precipitate was monitored throughout the experiment by a turbidity sensing device. […] The pKas of DDD806905 was determined at the pH where there was maximal change in UV absorbance with respect to pH. […]
LogD7.4 values were quantified using a Sirius T3 instrument (Sirius Analytical, U.K.). […]
which gave the best fit to the data was then recorded as the logP. […]

A short description of data set [3]: THP-1 cytotoxicity readout of intramacrophage assay. The data set is classed as cell-based. The settings on record: human, Leishmania infected, PMA-differentiated THP-1 cells; read-out: THP-1 EC50 (toxicity). Here is the method:
carried out as described above using 5%, 10% and 20% FBS in the media. To examine the effect of the methionine concentration on the potency of DDD806905 parasites were grown in the presence of drug and in the presence (or absence) of 20-fold excess methionine (0.3 g/l). IC50 curve fitting was undertaken in GraFit version 6.0 (Erithacus Software) using a four-parameter logistic dose-response curve (equation 6), with s the slope.
Leishmania Axenic Amastigote Assay
The Leishmania axenic amastigote assay was performed using the method published in Nühs et al 15.
Leishmania Intracellular Amastigote Assay
The intramacrophage Leishmania assay was performed using a modified version of the method described in De Rycker et al 16. […]
amphotericin B was included. Controls were as follows: columns 11 and 12: DMSO, columns 23 and 24: amphotericin B (final concentration 2 µM). 350 nl of compound was pre-dispensed into 384-well sterile intermediary plates. To the intermediary plates, 35 µl of THP-1 media was added and plates were shaken for >5 min to ensure complete mixing. […]
Amastigotes were incubated in the presence of THP-1 macrophages for 16 h. […] For each well, i) THP-1 cell count (cytotoxicity readout) and ii) average number of amastigotes per cell (potency readout) were […]

On to `Cl.Cl.O=c1nc(NCCCNCc2cc3c(Cl)cc(Cl)cc3[nH]2)[nH]c2ccccc12` [DDD806905, 2-((3-(((4,6-dichloro-1H-indol-2-yl)methyl)amino)propyl)amino)quinazolin-4(1H)-one dihydrochloride], for which the pIC50 (as a rule, the negative decadic logarithm of the IC50, by convention in mol/L) was 5.77 in data set [1] (H9C2 cells) and 5.77 in data set [1] (Rattus norvegicus, H9c2, H9C2 cells). Besides, the logD in data set [2] (pH 5.6, read-out: log D5.6) turned out to be 0.3; in data set [2] (pH 7.3, read-out: log D7.3) it was 2.6. Besides, the EC50 – broadly, the concentration that produces a half-maximal response – at 96 h in data set [3] is 10 µM.
